Test system: moderate-to-severe chronic spontaneous urticaria (CSU)
Test: Phase 2 CSU study: hives severity score over 7 days (HSS7)
Type: in vivo, human
Set-up: key to HSS7 Change from baseline, Median / HSS7, Median / HSS7, Max / HSS7 Change from baseline, Q1 / HSS7 Change from baseline, Q3 / HSS7 Change from baseline, Max: 7-day sum of daily hive scores, each 0 = none to 3 = >50 hives
Details: for median reduction in HSS7 at Week 12: omalizumab-naïve population; for HSS7, Mean (SD) / HSS7, Median: End of Study; for HSS7 change from baseline at Week 12, LS Mean / HSS7 change from baseline at Week 12, LS Mean Diff vs. placebo: ANCOVA
From the text: The study comprises a 12 week, randomized, double-blind, placebo-controlled, multi-center, dose-ranging efficacy and safety phase, followed by a 40 week open label extension (OLE) phase (see FIG. 1).
The study consists of three phases and an optional OLE phase.
The UAS is a validated PRO measure. The daily UAS is the sum of the daily Hive Severity Score (HSS, ranging from 0=None to 3=more than 50 hives) and the daily Itch Severity Score (ISS, ranging from 0=None to 3=intense), the 2 key urticaria signs and symptoms which are wheals and itch. The daily UAS scores range from 0 to 6 point/day. Daily UAS scores are summed over 7-day period to create the UAS7, ranging from 0 to 42, and are composed of the HSS7 and ISS7 components. […] Patients were to complete the UAS using the e-diary. The e-diary was to be used once daily on the same time of each day recording of participant's answers to the urticaria activity score over 7 days (UAS7) questionnaire. For participants who entered the OLE phase, their answers to the UAS7 questionnaire were also to be collected from Week 20 to Week24 and from Week 48 to Week 52.
The following secondary endpoints were to be analyzed using the same approach as for the primary endpoint: • Change from baseline in UAS7 at Week 4 • Change from baseline in UAS7 at Week 12 (for US and US reference countries) • Change from baseline in ISS7 at Week 12 (except US and US reference countries) • Change from baseline in HSS7 at Week 12

[1] = 400 mg TID, Week 9, ITT Population
[2] = 400 mg TID, Week 9, Omalizumab-Naïve Population
[3] = 400 mg TID, Week 10, ITT Population
[4] = 400 mg TID, Week 11, ITT Population
[5] = 400 mg TID, Week 12, ITT population
[6] = 400 mg TID, patients with prior omalizumab use, last block under Week 12, double-blind period, WOCF imputation
[7] = 400 mg BID, Omalizumab-Naïve Population
[8] = 400 mg QPM, Omalizumab-Naïve Population
[9] = 400 mg TID, Patients with Prior Omalizumab Use
[10] = Omalizumab-Naïve Population with Outlier Removed from Analysis, 400 mg BID
[11] = Omalizumab-Naïve Population with Outlier Removed from Analysis, 400 mg QPM
[12] = Omalizumab-Naïve Population with Outlier Removed from Analysis, 400 mg TID
[13] = Omalizumab-naïve Population, 400 mg BID
[14] = Omalizumab-naïve Population, 400 mg QPM
[15] = Omalizumab-naïve Population, 400 mg TID

CC(C)(C=C(C#N)C(=O)N1CCC[C@@H](n2nc(-c3ccc(Oc4ccccc4)cc3F)c3c(N)ncnc32)C1)N1CCN(C2COC2)CC1 [rilzabrutinib, (R)-2-[3-[4-amino-3-(2-fluoro-4-phenoxy-phenyl)pyrazolo[3,4-d]pyrimidin-1-yl]piperidine-1-carbonyl]-4-methyl-4-[4-(oxetan-3-yl)piperazin-1-yl]pent-2-enenitrile]
HSS7 Postbaseline Mean (SD) (400 mg TID, Week 8, Omalizumab-Naïve Population): 6.12 (4.80) | HSS7 Postbaseline Mean (SD) (400 mg TID, Week 8, Omalizumab-Naïve Population with Outlier Removed from Analysis): 6.12 (4.80) | HSS7 % Change difference for rilzabrutinib vs.placebo LS Mean (95% CI) [1]: −29.14 % | HSS7 % Change from baseline LS Mean (SE) [1]: −53.06 (6.70) % | HSS7 Change difference for rilzabrutinib vs.placebo LS Mean (95% CI) [1]: −3.67 (−6.21, −1.13) | HSS7 Change from baseline LS Mean (SE) [1]: −7.79 (0.94) | HSS7 Postbaseline Mean (SD) [1]: 5.43 (4.93) | HSS7 % Change difference for rilzabrutinib vs.placebo LS Mean (95% CI) [2]: −27.94 % | HSS7 Postbaseline Mean (SD) [2]: 5.88 (4.98) | HSS7 Postbaseline Mean (SD) (400 mg TID, Week 9, Omalizumab-Naïve Population with Outlier Removed from Analysis): 5.88 (4.98) | HSS7 % Change difference for rilzabrutinib vs.placebo LS Mean (95% CI) [3]: −28.54 % | HSS7 % Change from baseline LS Mean (SE) [3]: −56.54 (6.68) % | HSS7 Change difference for rilzabrutinib vs.placebo LS Mean (95% CI) [3]: −3.55 (−6.13, −0.97) | HSS7 Change from baseline LS Mean (SE) [3]: −8.15 (0.96) | HSS7 Postbaseline Mean (SD) [3]: 5.39 (5.05) | HSS7 Postbaseline Mean (SD) (400 mg TID, Week 10, Omalizumab-Naïve Population): 5.87 (5.06) | HSS7 Postbaseline Mean (SD) (400 mg TID, Week 10, Omalizumab-Naïve Population with Outlier Removed from Analysis): 5.87 (5.06) | HSS7 % Change difference for rilzabrutinib vs.placebo LS Mean (95% CI) [4]: −28.42 % | HSS7 % Change from baseline LS Mean (SE) [4]: −54.96 (6.95) % | HSS7 Change difference for rilzabrutinib vs.placebo LS Mean (95% CI) [4]: −3.55 (−6.14, −0.95) | HSS7 Change from baseline LS Mean (SE) [4]: −8.09 (0.96) | HSS7 Postbaseline Mean (SD) [4]: 5.60 (5.41) | HSS7 Postbaseline Mean (SD) (400 mg TID, Week 11, Omalizumab-Naïve Population): 6.17 (5.40) | HSS7 Postbaseline Mean (SD) (400 mg TID, Week 11, Omalizumab-Naïve Population with Outlier Removed from Analysis): 6.17 (5.40) | HSS7 % Change difference for rilzabrutinib vs.placebo LS Mean (95% CI) [5]: −29.54 % | HSS7 % Change from baseline LS Mean (SE) [5]: −57.27 (7.06) % | HSS7 Change difference for rilzabrutinib vs.placebo LS Mean (95% CI) [5]: −3.42 (−6.11, −0.74) | HSS7 Change from baseline LS Mean (SE) [5]: −8.31 (1.00) | HSS7 Postbaseline Mean (SD) [5]: 4.92 (4.89) | HSS7 Postbaseline Mean (SD) (400 mg TID, Week 12, Omalizumab-Naïve Population): 5.23 (4.86) | HSS7 Postbaseline Mean (SD) (400 mg TID, Week 12, Omalizumab-Naïve Population with Outlier Removed from Analysis): 5.23 (4.86) | median reduction in HSS7 at Week 12 (400 mg TID): −7.64 | median reduction in HSS7 at Week 12 (400 mg TID, outlier removed): −7.89 | HSS7, Max [6]: 8.2 | HSS7, Min [6]: 4.0 | HSS7 Change from baseline, Max [6]: 0.0 | HSS7 Change from baseline, Mean (SD) [6]: −2.00 (2.83) | HSS7 Change from baseline, Median [6]: −2.00 | HSS7 Change from baseline, Min [6]: −4.0 | HSS7 Change from baseline, Q1 [6]: −4.00 | HSS7 Change from baseline, Q3 [6]: 0.00 | HSS7 Percent change from baseline, Max [6]: 0.0% | HSS7 Percent change from baseline, Mean (SD) [6]: −25.00 (35.36) percent | HSS7 Percent change from baseline, Median [6]: −25.00% | HSS7 Percent change from baseline, Min [6]: −50.0% | HSS7 Percent change from baseline, Q1 [6]: −50.00% | HSS7 Percent change from baseline, Q3 [6]: 0.00% | HSS7, Mean (SD) [7]: 7.80 (8.76) | HSS7, Median [7]: 7.00 | HSS7, Mean (SD) [8]: 6.13 (9.09) | HSS7, Median [8]: 1.40 | HSS7, Mean (SD) (400 mg TID, Omalizumab-Naïve Population): 10.00 (5.79) | HSS7, Mean (SD) [9]: 6.08 (2.95) | HSS7, Median [9]: 6.08 | HSS7 at Week 12, Mean (ITT Population, 400 mg BID): 7.08 | HSS7 at Week 12, Median (ITT Population, 400 mg BID): 6.00 | HSS7 change from baseline at Week 12, Mean (ITT Population, 400 mg BID): −7.81 | HSS7 change from baseline at Week 12, Median (ITT Population, 400 mg BID): −5.30 | HSS7 change from baseline at Week 12, LS Mean (ITT Population, 400 mg BID): −6.78 | HSS7 change from baseline at Week 12, LS Mean Diff vs. placebo (ITT Population, 400 mg BID): −1.89 | HSS7 at Week 12, Median (ITT Population, 400 mg QPM): 8.75 | HSS7 change from baseline at Week 12, Mean (ITT Population, 400 mg QPM): −5.05 | HSS7 change from baseline at Week 12, Median (ITT Population, 400 mg QPM): −4.00 | HSS7 change from baseline at Week 12, LS Mean (ITT Population, 400 mg QPM): −4.75 | HSS7 change from baseline at Week 12, LS Mean Diff vs. placebo (ITT Population, 400 mg QPM): 0.14 | HSS7 at Week 12, Mean (ITT Population, 400 mg TID): 4.92 | HSS7 at Week 12, Median (ITT Population, 400 mg TID): 3.50 | HSS7 change from baseline at Week 12, Mean (ITT Population, 400 mg TID): −9.62 | HSS7 change from baseline at Week 12, Median (ITT Population, 400 mg TID): −9.00 | HSS7 change from baseline at Week 12, LS Mean (ITT Population, 400 mg TID): −8.31 | HSS7 change from baseline at Week 12, LS Mean Diff vs. placebo (ITT Population, 400 mg TID): −3.42 | HSS7 at Week 12, Mean [10]: 7.52 | HSS7 at Week 12, Median [10]: 7.00 | HSS7 change from baseline at Week 12, Mean [10]: −7.09 | HSS7 change from baseline at Week 12, Median [10]: −4.50 | HSS7 change from baseline at Week 12, LS Mean [10]: −6.56 | HSS7 change from baseline at Week 12, LS Mean Diff vs. placebo [10]: −2.20 | HSS7 at Week 12, Median [11]: 8.58 | HSS7 change from baseline at Week 12, Mean [11]: −4.85 | HSS7 change from baseline at Week 12, Median [11]: −4.00 | HSS7 change from baseline at Week 12, LS Mean [11]: −4.57 | HSS7 change from baseline at Week 12, LS Mean Diff vs. placebo [11]: −0.22 | HSS7 at Week 12, Mean [12]: 5.23 | HSS7 at Week 12, Median [12]: 4.08 | HSS7 change from baseline at Week 12, Mean [12]: −8.77 | HSS7 change from baseline at Week 12, Median [12]: −8.00 | HSS7 change from baseline at Week 12, LS Mean [12]: −7.89 | HSS7 change from baseline at Week 12, LS Mean Diff vs. placebo [12]: −3.54 | HSS7 at Week 12, Mean [13]: 7.52 | HSS7 at Week 12, Median [13]: 7.00 | HSS7 change from baseline at Week 12, Mean [13]: −7.09 | HSS7 change from baseline at Week 12, Median [13]: −4.50 | HSS7 change from baseline at Week 12, LS Mean [13]: −6.52 | HSS7 change from baseline at Week 12, LS Mean Diff vs. placebo [13]: −2.12 | HSS7 at Week 12, Median [14]: 8.58 | HSS7 change from baseline at Week 12, Mean [14]: −4.85 | HSS7 change from baseline at Week 12, Median [14]: −4.00 | HSS7 change from baseline at Week 12, LS Mean [14]: −4.49 | HSS7 change from baseline at Week 12, LS Mean Diff vs. placebo [14]: −0.09 | HSS7 at Week 12, Mean [15]: 5.23 | HSS7 at Week 12, Median [15]: 4.08 | HSS7 change from baseline at Week 12, Mean [15]: −8.77 | HSS7 change from baseline at Week 12, Median [15]: −8.00 | HSS7 change from baseline at Week 12, LS Mean [15]: −7.64
